The results in this text go back to patent US20240239806A1, “COMPOUNDS, COMPOSITIONS AND METHODS OF TREATING DISORDERS” (Chengdu Anticancer Bioscience, Ltd., priority 2021, published 2024).

Molecules are shown by their SMILES. Entries after “also recorded” stand apart in the source; their conditions may differ.

In one experiment the test system is A549. Kind of experiment: MECP in cancer cell line. The class given is cell-based. The conditions noted are these: Homo sapiens. The essentials:
(§1)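 Cells grown in DMEM with 5% FBS at 37° C, 5% CO2, then treated at 1 nM to 30 μM. Imaging at 24, 48 or 72 h scored mitotic arrest or DNA-content change; hits show transient mitotic-index rise at 24 h and polyploid accumulation at 48 h; values binned A (≤1.0 μM) to D (>30.0 μM).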
`COc1cc(Oc2ccnc3ccc(Br)cc23)cc(-n2cccn2)c1` [Compound 21, 6-bromo-4-(3-methoxy-5-(1H-pyrazol-1-yl)phenoxy)quinoline]: the minimal effective concentration lay in the range of 0.001 to 1 µM.

A further experiment has as its system SW480. Put plainly: MECP in cancer cell line. The conditions noted are these: Homo sapiens. It counts as cell-based. An outline of the steps: as §1
`COc1cc(Oc2ccnc3ccc(Br)cc23)cc(-n2cccn2)c1` [Compound 21, 6-bromo-4-(3-methoxy-5-(1H-pyrazol-1-yl)phenoxy)quinoline]: the minimal effective concentration was in the range of 0.001 to 1 µM.

The test system of the next experiment is Hela. Kind of experiment: MECP in cancer cell line. The class given is cell-based. The following applies: Homo sapiens. An outline of the steps:
as §1
For the molecule `COc1cc(Oc2ccnc3ccc(Br)cc23)cc(-n2cccn2)c1` [Compound 21, 6-bromo-4-(3-methoxy-5-(1H-pyrazol-1-yl)phenoxy)quinoline], the minimal effective concentration lay in the range of 0.001 to 1 µM.

The test system of a further experiment is MDA-MB-231. Put plainly: MECP in cancer cell line. The class given is cell-based. The following applies: Homo sapiens. An outline of the steps: as §1
Take `COc1cc(Oc2ccnc3ccc(Br)cc23)cc(-n2cccn2)c1` [Compound 21, 6-bromo-4-(3-methoxy-5-(1H-pyrazol-1-yl)phenoxy)quinoline]: the minimal effective concentration was 0.001 to 1 µM.

A further experiment relates to T2 HCC. Kind of experiment: MECP in cancer cell line. The class given is cell-based. The following applies: Mus musculus. The essentials:
as §1
On to `COc1cc(Oc2ccnc3ccc(Br)cc23)cc(-n2cccn2)c1` [Compound 21, 6-bromo-4-(3-methoxy-5-(1H-pyrazol-1-yl)phenoxy)quinoline], for which the minimal effective concentration fell in the range of 0.001 to 1 µM.

In a further experiment the test system is HCT116. Put plainly: MECP in cancer cell line. It counts as cell-based. The following applies: Homo sapiens, HCT-116. The essentials: as §1
As to `COc1cc(Oc2ccnc3ccc(Br)cc23)cc(-n2cccn2)c1` [Compound 21, 6-bromo-4-(3-methoxy-5-(1H-pyrazol-1-yl)phenoxy)quinoline], the minimal effective concentration was 0.001 to 1 µM.

In a further experiment the test system is RPEMYC^H2B-GFP cells. Kind of experiment: Phenotypic screening assay (mitotic arrest, polyploidy). It counts as cell-based. The conditions noted are these: 1 nM to 30 μM, read-out: Min. Effective conc. for Polyploidy (≥5%). The essentials:
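RPE cells expressing MYC and H2B-EGFP treated with compound at 1 nM–30 μM; mitotic index scored at 24 h and polyploidy (DNA content) at 48 h by automated imaging, with reads at 24, 48 or 72 h. Hits show transient mitotic arrest followed by polyploid accumulation.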
As to `COc1cc(Oc2ccnc3ccc(Br)cc23)cc(-n2cccn2)c1` [Compound 21, 6-bromo-4-(3-methoxy-5-(1H-pyrazol-1-yl)phenoxy)quinoline], the minimal effective concentration fell in the range of 0.001 to 1 µM.

The experiment is the same for the next values; noted with them: 1 nM to 30 μM, read-out: Mitotic Arrest (≥5%).
Regarding `COc1cc(Oc2ccnc3ccc(Br)cc23)cc(-n2cccn2)c1` [Compound 21, 6-bromo-4-(3-methoxy-5-(1H-pyrazol-1-yl)phenoxy)quinoline], the minimal effective concentration lay within 0.001 to 1 µM.

Staying with this experiment, now noted: 1 nM to 30 μM, read-out: Proliferative arrest (>50%).
Consider `COc1cc(Oc2ccnc3ccc(Br)cc23)cc(-n2cccn2)c1` [Compound 21, 6-bromo-4-(3-methoxy-5-(1H-pyrazol-1-yl)phenoxy)quinoline], for which the IC50 lay within 1 to 1000 nM.

For another experiment, the system named is human breast cancer cell line MDA-MB-231. Kind of experiment: Xenograft assay. It counts as in vivo. The following applies: MDA-MB-231 xenograft, Nu/Nu mice, 25 mg/kg oral gavage twice a day for 7 days. On the procedure: (§2) Xenografts were initiated in immunocompromised (Nu/Nu) mice with the human lung adenocarcinoma cell line NCI-H23 (FIG. 4A) and the human breast cancer cell line MDA-MB-231 (FIG. 4B). Seven million cells were injected subcutaneously into each mouse and treatment was initiated when the average tumor volumes reached 150 mm3 (n=5/group). Tumor-bearing mice were randomized into different groups to receive either vehicle or indicated compounds. The compounds were administered through oral gavage twice a day for 7 days. For these experiments, all compounds were first dissolved in DMSO and then diluted 1:10 into a mixture containing 50% PEG300 and 49% PBS, 1% Tween 80, pH2.2. 100 ul of drug solution was administered with each dose to each a dose of 25 mg/kg. Tumor volumes were determined from digital caliper raw data by using the formula: Volume (mm3)=(L×W^2)/2. The value W (Width) is the smaller of two perpendicular tumor axes and the value L (Length) is the larger of two perpendicular axes. Mean tumor volumes were calculated for each treatment group at the start point (day 0) and the endpoint (day 7). The percentage change of tumor volumes, defined as (Tumor […]˜Tumor Volume^day0)/Tumor Volume^day0×100% is presented.
Turning to `COc1cc(Oc2ccnc3ccc(Br)cc23)cc(-n2cccn2)c1` [Compound 21, 6-bromo-4-(3-methoxy-5-(1H-pyrazol-1-yl)phenoxy)quinoline], the “tumor growth (percentage change of tumor volumes)” value is on record as “suppress the growth; also recorded: suppressing the tumor growth”.

Another experiment relates to human lung adenocarcinoma cell line NCI-H23. Put plainly: Xenograft assay. The conditions noted are these: Nu/Nu mice, 25 mg/kg oral gavage twice a day for 7 days. The class given is in vivo. Here is the method:
as §2
With `COc1cc(Oc2ccnc3ccc(Br)cc23)cc(-n2cccn2)c1` [Compound 21, 6-bromo-4-(3-methoxy-5-(1H-pyrazol-1-yl)phenoxy)quinoline], the “tumor growth (percentage change of tumor volumes)” value is given as “suppress the growth; also recorded: suppressing the tumor growth”.

The next experiment deals with NCI-H23. Put plainly: MTT assay of cellular proliferation. The class given is cell-based. The following applies: Homo sapiens, 50% inhibition of cellular proliferation. The essentials: (§3)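 EC50 for 50% growth inhibition came from MTT formazan absorbance at 570 nm after 3–4 h dye incubation. Beforehand, cells grown to 20–30% confluence (15–24 h) in DMEM/5% FBS were treated with compound over 1 nM–30 μM.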
(In general: Tetrazolium dyes change colour on reduction, which living cells bring about.)
As a reminder, the EC50 is the concentration that produces a half-maximal response. A low value points to higher potency in that assay. Molecule `COc1cc(Oc2ccnc3ccc(Br)cc23)cc(-n2cccn2)c1` [Compound 21, 6-bromo-4-(3-methoxy-5-(1H-pyrazol-1-yl)phenoxy)quinoline] came in with an EC50 of 1 to 1000 nM.

Another experiment relates to A549. Put plainly: MTT assay of cellular proliferation. The conditions noted are these: Homo sapiens, 50% inhibition of cellular proliferation. The class given is cell-based. An outline of the steps:
as §3
`COc1cc(Oc2ccnc3ccc(Br)cc23)cc(-n2cccn2)c1` [Compound 21, 6-bromo-4-(3-methoxy-5-(1H-pyrazol-1-yl)phenoxy)quinoline] displayed an EC50 of 1 to 1000 nM.

Another experiment relates to SW480. Kind of experiment: MTT assay of cellular proliferation. The conditions noted are these: Homo sapiens, 50% inhibition of cellular proliferation. The class given is cell-based. An outline of the steps:
as §3
Take `COc1cc(Oc2ccnc3ccc(Br)cc23)cc(-n2cccn2)c1` [Compound 21, 6-bromo-4-(3-methoxy-5-(1H-pyrazol-1-yl)phenoxy)quinoline]: the EC50 fell in the range of 1 to 1000 nM.

The test system of another experiment is Hela. Put plainly: MTT assay of cellular proliferation. It counts as cell-based. The following applies: Homo sapiens, 50% inhibition of cellular proliferation. The essentials: as §3
On to `COc1cc(Oc2ccnc3ccc(Br)cc23)cc(-n2cccn2)c1` [Compound 21, 6-bromo-4-(3-methoxy-5-(1H-pyrazol-1-yl)phenoxy)quinoline], for which the EC50 lay in the range of 1 to 1000 nM.

Another experiment concerns MDA-MB-231. Put plainly: MTT assay of cellular proliferation. The conditions noted are these: Homo sapiens; MDA-MB-231, MTT, 50% inhibition of cellular proliferation. The class given is cell-based. The essentials:
as §3
For the molecule `COc1cc(Oc2ccnc3ccc(Br)cc23)cc(-n2cccn2)c1` [Compound 21, 6-bromo-4-(3-methoxy-5-(1H-pyrazol-1-yl)phenoxy)quinoline], the EC50 lay in the range of 1 to 1000 nM.

A further experiment deals with NCI-N87. Put plainly: MTT assay of cellular proliferation. The class given is cell-based. The conditions noted are these: Homo sapiens, 50% inhibition of cellular proliferation. An outline of the steps: as §3
The molecule `COc1cc(Oc2ccnc3ccc(Br)cc23)cc(-n2cccn2)c1` [Compound 21, 6-bromo-4-(3-methoxy-5-(1H-pyrazol-1-yl)phenoxy)quinoline] yielded an EC50 of 1 to 1000 nM.

The subject of the next experiment is T2 HCC. Put plainly: MTT assay of cellular proliferation. The class given is cell-based. The conditions noted are these: Mus musculus, 50% inhibition of cellular proliferation. An outline of the steps:
as §3
For `COc1cc(Oc2ccnc3ccc(Br)cc23)cc(-n2cccn2)c1` [Compound 21, 6-bromo-4-(3-methoxy-5-(1H-pyrazol-1-yl)phenoxy)quinoline], the EC50 fell in the range of 1 to 1000 nM.

A further experiment concerns HCT116. Put plainly: MTT assay of cellular proliferation. It counts as cell-based. The conditions noted are these: Homo sapiens, HCT-116, 50% inhibition of cellular proliferation. The essentials:
as §3
`COc1cc(Oc2ccnc3ccc(Br)cc23)cc(-n2cccn2)c1` [Compound 21, 6-bromo-4-(3-methoxy-5-(1H-pyrazol-1-yl)phenoxy)quinoline] yielded an EC50 of 1 to 1000 nM.

The test system of a further experiment is NCI-H23. Put plainly: MECP in cancer cell line. The class given is cell-based. The conditions noted are these: Homo sapiens. The essentials: as §1
`COc1cc(Oc2ccnc3ccc(Br)cc23)cc(-n2cccn2)c1` [Compound 21, 6-bromo-4-(3-methoxy-5-(1H-pyrazol-1-yl)phenoxy)quinoline] returned a minimal effective concentration of 0.001 to 1 µM.

The subject of another experiment is NCI-N87. Put plainly: MECP in cancer cell line. It counts as cell-based. The following applies: Homo sapiens. An outline of the steps: as §1
As to `COc1cc(Oc2ccnc3ccc(Br)cc23)cc(-n2cccn2)c1` [Compound 21, 6-bromo-4-(3-methoxy-5-(1H-pyrazol-1-yl)phenoxy)quinoline], the minimal effective concentration is 0.001 to 1 µM.
